What was measured:
phosphorylation of KRS = assay: Laminin-induced phosphorylation of Myc-KRS, immunoprecipitation and immunoblot with anti-p-Thr, -Ser, -Tyr antibodies; format: cell-based, human; conditions: Myc-KRS transfected A549 cells; FIG. 10
Protocol: In FIG. 7, A549 cells were treated with laminin (10 ug/ml) and the level of 67LR, 37LRP and KRS was determined by Western blotting at the indicated times. Hsp90 and Cadherin were used as markers for cytoplasm and membrane, respectively. In FIG. 8, A549 cells untreated or treated with laminin for 1 h were subjected to immunofluorescence staining with anti-67LR (MLuC5, Santacruz, sc-59732) (red) and -KRS antibodies (green). In FIG. 9, A549 cells were treated with U73122 (U), staurosporin (ST) and LY294002 (LY) that inhibit PLC-gamma, PKC and PI3K, respectively, for 3 hr, then with laminin for 1 hr and checked how these kinase inhibitors would affect the membrane and cytoplasmic level of 67LR and KRS. In FIG. 10, A549 cells were transfected with Myc-KRS and incubated for 24 h. The cells were treated with the indicated chemicals and then with laminin as above. Myc-KRS was immunoprecipitated, and immunoblotted with anti-p-Thr, -Ser, and -Tyr antibodies. In FIG. 11, A549 cells were transfected with Myc-KRS and cultivated for 24 hr. The transfectants were pre-treated with LY294002 for 3 hr and then treated with laminin for 1 h. Myc-KRS was immunoprecipitated and co-precipitation of 67LR was determined by Western blotting. […] EPRS (glutamyl-prolyl-tRNA synthetase) was immunoprecipitated with its specific antibody (AbCam), and co-immunoprecipitation of KRS was determined by Western blotting (upper). […]

[1] = test system: membrane translocation of KRS; assay: Laminin-dependent membrane translocation of KRS and 67LR, cell fractionation and Western blotting; format: cell-based; conditions: A549 cells; inhibitor for 3 hr, then laminin for 1 hr; FIG. 9 upper
Protocol: In FIG. 7, A549 cells were treated with laminin (10 ug/ml) and the level of 67LR, 37LRP and KRS was determined by Western blotting at the indicated times. Hsp90 and Cadherin were used as markers for cytoplasm and membrane, respectively. In FIG. 8, A549 cells untreated or treated with laminin for 1 h were subjected to immunofluorescence staining with anti-67LR (MLuC5, Santacruz, sc-59732) (red) and -KRS antibodies (green). In FIG. 9, A549 cells were treated with U73122 (U), staurosporin (ST) and LY294002 (LY) that inhibit PLC-gamma, PKC and PI3K, respectively, for 3 hr, then with laminin for 1 hr and checked how these kinase inhibitors would affect the membrane and cytoplasmic level of 67LR and KRS. In FIG. 10, A549 cells were transfected with Myc-KRS and incubated for 24 h. The cells were treated with the indicated chemicals and then with laminin as above. Myc-KRS was immunoprecipitated, and immunoblotted with anti-p-Thr, -Ser, and -Tyr antibodies. In FIG. 11, A549 cells were transfected with Myc-KRS and cultivated for 24 hr. The transfectants were pre-treated with LY294002 for 3 hr and then treated with laminin for 1 h. Myc-KRS was immunoprecipitated and co-precipitation of 67LR was determined by Western blotting. IgG was used as a control for immunoprecipitation. In FIG. 12, A549 cells were cultivated in the absence and presence of laminin and LY294002 as indicated. EPRS (glutamyl-prolyl-tRNA synthetase) was immunoprecipitated with its specific antibody (AbCam), and co-immunoprecipitation of KRS was determined by Western blotting (upper). The immune-depleted supernatant (ID) were subjected to Western blottingting with anti-KRS and -EPRS antibodies.
The cells were lysed with 20 mM Tris-HCl (pH 7.4) buffer containing 150 mM NaCl, 0.5% TritonX-100, 0.1% SDS, and protease inhibitor. The protein extracts were incubated with normal IgG and protein G agarose for 2 hr and then centrifuged to remove nonspecific IgG binding proteins. […]

A549 cells = assay: Cell migration assay in Transwell chamber; format: cell-based; conditions: purified KRS at different concentration in lower chamber, 6 hr, FIG. 25
Protocol: In FIG. 18, A549 cells were transfected with the indicated plasmids, incubated in the absence and presence of laminin and their effect on cell migration was determined by measuring the migrated cells in transwell chamber as described. The numbers of the cells passed through the membrane were counted and shown in each panel. The experiments were performed three times. In FIG. 19, the cells treated as above were used to determine MMP-2 activity and level by zymography and Western blotting, respectively. In FIG. 20, Breast carcinoma 4T-1 cells were transfected with the indicated siRNA and subcutaneously injected to the back of Balb/C mice. After 21 days, mouse lungs were isolated and tumor nodules over 1 mm in diameter were counted. In FIG. 21, two different 4T-1 cells stably expressing exogenously introduced KRS (KRS-1 and -2) were also inoculated as above and the tumor nodules were counted 30 days after injection. […]
FIGS. 24 to 27 show effect of intracellular and extracellular KRS on cell migration, protein synthesis and cell cycle. In FIG. 24, Migration of A549 cells incubated in the absence of laminin was determined was determined by measuring the migrated cells in Transwell chamber. […] After 6 hr of incubation, the migrant were counted. […] In FIG. 27, A549 cells transfected as indicated were fixed and stained with propidium iodide, and their cell cycle was determined by flow cytometry. […]

Molecule	laminin-induced phosphorylated KRS at threonine and serine in presence of inhibitor (phosphorylation of KRS)	Laminin-dependent increase of KRS and 67LR in the membrane fraction [1]	cell migration (chemotactic activity of extracellular KRS) (A549 cells)
CN[C@@H]1C[C@H]2O[C@@](C)([C@@H]1OC)n1c3ccccc3c3c4c(c5c6ccccc6n2c5c31)C(=O)NC4 [staurosporin, reference compound]	did not give any effect	still showed laminin-dependent induction of 67LRS	
COc1ccc2c(c1)CC[C@@H]1[C@@H]2CC[C@]2(C)[C@@H](NCCCCCCN3C(=O)C=CC3=O)CC[C@@H]12 [U73122]		still showed laminin-dependent induction of 67LRS	
purified KRS: purified human lysyl-tRNA synthetase protein added extracellularly			little affected

— patent US10139394B2, “Method for controlling cancer metastasis or cancer cell migration by modulating the cellular level of lysyl tRNA synthetase” (Medicinal Bioconvergence Research Center, priority 2008, dated 2018)
